The values that follow come from patent publication US11091496B2, “Opioid ketal compounds and uses thereof” (priority 2013, dated 2021).

Like-named read-outs stand apart in the source and are kept apart here.

Data set [1] can be described thus: Hydrolysis in Simulated Gastric Fluid (SGF) at 37° C., LC/MS. The settings on record: for Hydrolysis in SGF: hydrolyzed in 6.75 hours; for Oxycodone, Ketal A-D in hydrolysis mixture: oxycodone 2,4-pentanediol ketal isomers + unreacted oxycodone, 2 mg/nil, SGF 37° C.
Data set [2] is classed as physicochemical. The settings on record: for time to almost complete hydrolysis: 0.1N HCl 37° C., FIG. 10; for % Oxycodone, % IVA-IVD in hydrolysis mixture: total 1 mg/ml; for % Oxycodone, % IVA-IVD in hydrolysis mixture / % IVC in hydrolysis mixture / % Oxycodone, % IVD in hydrolysis mixture: 0.1 N HCl 37° C.; for relative rate of hydrolysis: comparison of stereoisomers; for % IVC in hydrolysis mixture: isomer IVC tested separately; for % IVC in hydrolysis mixture / % Oxycodone, % IVD in hydrolysis mixture: 1 mg/ml, normalized; for % Oxycodone, % IVD in hydrolysis mixture: isomer IVD tested separately.

For data set [3] the following is noted: unreacted oxycodone + four isomers of Formula IV, 1 mg/ml, 5% acetic acid 100° C.
A short description of data set [4]: Ketal hydrolysis at varying pH, buffers at 37° C. As to conditions: 1 mg/ml; for hydrolysis of the ketal: Table 13b, 37° C.

For `COc1ccc2c3c1OC1C4(CCC5(O)[C@@H](C2)N(C)CC[C@]315)OCC(C)O4` (some centres unmarked), in data set [1], the “Hydrolysis in SGF” value was “Trace hydrolysis in 6.75 hours”.

Consider `COc1ccc2c3c1OC1C4(CCC5[C@@H](C2)N(C)CC[C@@]351)OCCO4` (some centres unmarked), for which the “Hydrolysis in SGF” value in data set [1] is on record as ~2% hydrolyzed in 6.75 hours.

For `COc1ccc2c3c1OC1C4(CCC5(O)C(C2)N(C)CCC315)OC(C)CC(C)O4` (stereo not drawn) [IVB, oxycodone 2S,4R-pentanediol ketal], the “Oxycodone, Ketal A-D in hydrolysis mixture” value in data set [1] (0 h) is on record as 10.3; in data set [1] (0.58 h), 9.8; in data set [1] (1.25 h) it was 10.4; in data set [1] (2 h) it was 9.7; in data set [1] (3 h) it was 10.2; in data set [1] (4 h), 9.1.

In the case of `COc1ccc2c3c1O[C@H]1C4(CCC5(O)[C@@H](C2)N(C)CC[C@]315)O[C@@H](C)C[C@H](C)O4` (stereo partly drawn) [IVC, oxycodone 2S,4S-pentanediol ketal], the “time to almost complete hydrolysis” value in data set [2] is ≤ 8 h. Further, the “% Oxycodone, % IVA-IVD in hydrolysis mixture” value (“% Oxycodone, % IVA-IVD” below) was 35.8% in data set [2] (0 h); 29.2% in data set [2] (0.583 h); 26% in data set [2] (1.167 h); 20.6% in data set [2] (1.75 h); 17.7% in data set [2] (2.33 h); 15% in data set [2] (2.92 h). Further, the “% Oxycodone, % IVA-IVD” value in data set [2] (4 h) worked out at 10.3%; in data set [2] (6.5 h), 4%; in data set [2] (9.75 h), 1.5%; in data set [2] (13.75 h), 0%; in data set [2] (25 h) it was 0%; in data set [3] (0 h), 36.2%. Further, the “% Oxycodone, % IVA-IVD” value in data set [3] (0.5 h) was found to be 12.8%; in data set [3] (1 h), 5.9%; in data set [3] (2 h) it was 0.9%; in data set [3] (4.35 h) it was 0%; in data set [3] (10 h), 0%. The “relative rate of hydrolysis” value in data set [2] is reported as “hydrolyzes relatively slowly”. In addition, the “% IVC in hydrolysis mixture” value worked out at 98.7% in data set [2] (0 h); 71.5% in data set [2] (0.75 h); 54% in data set [2] (1.5 h); 18.8% in data set [2] (3.33 h); 4.7% in data set [2] (6 h); 2.1% in data set [2] (8 h).

`COc1ccc2c3c1O[C@H]1C4(CCC5(O)[C@@H](C2)N(C)CC[C@]315)O[C@H](C)C[C@@H](C)O4` (stereo partly drawn) [IVD, oxycodone 2R,4R-pentanediol ketal]: in data set [2], the “time to almost complete hydrolysis” value was ≤ 2 h. Moreover, the “% Oxycodone, % IVA-IVD” value in data set [2] (0 h) was found to be 17.3%; in data set [2] (0.583 h), 8.6%; in data set [2] (1.167 h), 4.8%; in data set [2] (1.75 h), 2.6%; in data set [2] (2.33 h), 1.5%; in data set [2] (2.92 h) it was 0.7%. In addition, the “% Oxycodone, % IVA-IVD” value in data set [2] (4 h) is recorded as 0%; in data set [2] (6.5 h) it was 0%; in data set [2] (9.75 h), 0%; in data set [2] (13.75 h), 0%; in data set [2] (25 h), 0%; in data set [3] (0 h), 17.6%. Besides, the “% Oxycodone, % IVA-IVD” value is 1.5% in data set [3] (0.5 h); 0% in data set [3] (1 h); 0% in data set [3] (2 h); 0% in data set [3] (4.35 h); 0% in data set [3] (10 h). Moreover, in data set [2], the “relative rate of hydrolysis” value is on record as “hydrolyzes relatively quickly”. In addition, the “% Oxycodone, % IVD in hydrolysis mixture” value stood at 99.8% in data set [2] (0 h); 70% in data set [2] (0.17 h); 44.8% in data set [2] (0.33 h); 10.8% in data set [2] (1 h); 2% in data set [2] (2 h). For the same compound, the “hydrolysis of the ketal” value in data set [4] (pH 1, 0 h) is 0; in data set [4] (pH 1, 0.33 h) it was 55.2; in data set [4] (pH 1, 1 h), 89.2; in data set [4] (pH 1, 2 h), 98; in data set [4] (pH 1, 4 h), 100; in data set [4] (pH 1.5, 0 h), 0. For the same compound, the “hydrolysis of the ketal” value in data set [4] (pH 1.5, 0.33 h) was 14.9; in data set [4] (pH 1.5, 1 h), 34.4; in data set [4] (pH 1.5, 2 h), 51.9; in data set [4] (pH 1.5, 4 h) it was 80.4; in data set [4] (pH 2, 0 h) it was 0; in data set [4] (pH 2, 0.33 h), 4.6. Moreover, the “hydrolysis of the ketal” value in data set [4] (pH 2, 1 h) amounted to 13.3; in data set [4] (pH 2, 2 h) it was 24.2; in data set [4] (pH 2, 4 h) it was 40.9; in data set [4] (pH 2.5, 0 h), 0; in data set [4] (pH 2.5, 0.33 h), 0; in data set [4] (pH 2.5, 1 h), 0. In addition, the “hydrolysis of the ketal” value in data set [4] (pH 2.5, 2 h) amounted to 8.4; in data set [4] (pH 2.5, 4 h), 14.7; in data set [4] (pH 3, 0 h), 0; in data set [4] (pH 3, 0.33 h), 0; in data set [4] (pH 3, 1 h), 0; in data set [4] (pH 3, 2 h), 3.4. Besides, the “hydrolysis of the ketal” value in data set [4] (pH 3, 4 h) is 6.4. In data set [4] (pH buffers 37° C.), the “pH at which hydrolysis of the ketal is fastest” value is given as “fastest at pH 1”.
